Laboratory results reported in US20110160175A1, “18,21-Didesoxymacbecin Derivatives for the Treatment of Cancer” (priority 2006, published 2011).

How the values were obtained:
[1] = target: Hsp90 (Homo sapiens, UniProt P07900); settings: cited from earlier work
[2] = tested on: panel of human tumour cell lines; test: Monolayer proliferation assay, mean IC70 across the cell line panel; type: cell-based; settings: geometric mean of all replicates across the 6 cell lines; concentration inhibiting cell growth by 70%
Method: In vitro evaluation of compounds for anticancer activity in a panel of human tumour cell lines in a monolayer proliferation assay were carried out at the Oncotest Testing Facility, Institute for Experimental Oncology, Oncotest GmbH, Freiburg.
The Oncotest cell lines were established from human tumor xenografts as described by Roth et al., (1999). The origin of the donor xenografts was described by Fiebig at al., (1999). Other cell lines were either obtained from the NCl (DU145, MCF-7) or purchased from DSMZ, Braunschweig, Germany.
All cell lines, unless otherwise specified, were grown at 37° C. in a humidified atmosphere (95% air, 5% CO2) in a ‘ready-mix’ medium containing RPMI 1640 medium, 10% fetal calf serum, and 0.1 mg/mL gentamicin (PAA, Cölbe, Germany). […]
Briefly, cells were harvested from exponential phase cultures by trypsinization, counted and plated in 96 well flat-bottomed microtitre plates at a cell density dependent on the cell line (5-10.000 viable cells/well). […] After thawing the plates, fluorescence was measured using the Cytofluor 4000 microplate reader (excitation 530 nm, emission 620 nm), giving a direct relationship to the total number of viable cells. Growth inhibition may be expressed as treated/control×100 (% T/C). […]

Row | SMILES | binding affinity to Hsp90, fold greater than 17-AAG ([1]; relative to 17-AAG) [fold] | binding affinity to Hsp90, fold greater than geldanamycin ([1]; relative to geldanamycin) [fold] | average IC70 value across the cell-line panel [2] [µg/mL]
1 | CO[C@H]1C[C@H](C)Cc2cc(O)cc(c2)NC(=O)/C=C/CC[C@H](OC)[C@@H](OC(N)=O)/C(C)=C/[C@H](C)[C@H]1O [KOSN1559] | 8 | 4 | –
2 | CO[C@H]1[C@@H](OC)C[C@H](C)[C@@H](OC)C2=CC(=O)C=C(NC(=O)/C(C)=C/C=C\[C@H](C)[C@@H](OC(N)=O)/C(C)=C/[C@@H]1C)C2=O [macbecin] | – | – | 0.21
